Results from a melting point compilation (Tetko et al.; mined from patent text by program, amines drawn as free bases though some values may be those of a salt).

| SMILES | melting point |
| --- | --- |
| COC(=O)c1c(OC)cc(N(C)C)nc1C | 65 to 66 °C |
| CC1Nc2ccc(-c3coc(C#N)c3)cc2C(C)(C)O1 (stereo unspecified) | 116 to 118 °C |
| CC(C)c1ccc2nc3ccc(C(=O)O)cc3c(=O)n2c1 | 312 to 316 °C |
| N#Cc1sc(N)c(C#N)c1Cl | 259 °C |
| COc1ccc(NC(=O)N2CCCC2=O)cc1 | 113 to 114 °C |
| CN(Cc1cc2c3c(c1)c(=O)c(C(=O)NCc1ccc(Cl)cc1)cn3CC(=O)N2C)C[C@@H](O)c1cc2ccccc2o1 | 86 to 87 °C |
| N#CCCN(CC1CC1)C(N)=O | 84 to 87 °C |
| Cc1cc(OCc2ccccc2)cc(C)c1CC(=O)O | 149 to 150 °C |
| CC(C)n1nc(-c2c(-c3ccccc3)nn3ccc(C(=O)NCCOc4ccccc4)cc23)ccc1=O | 156 to 157 °C |
| CON=C(C(=O)O)c1cccc(NC(=O)C(F)(F)F)n1 | 194 to 195 °C |
| COc1cccc(OC)c1-c1ccc(C[C@H](NC(=O)c2c(Cl)cc(-c3nccs3)cc2Cl)C(=O)O)cc1 | 142 °C |
| Nc1nc(Nc2ccc([N+](=O)[O-])cc2)sc1C(=O)c1ccccc1[N+](=O)[O-] | 266 to 268 °C |
| O=C(Nc1cccc2c1C(=O)c1c-2n[nH]c1-c1ccc(C(=O)N2CCN(CC3CC3)CC2)s1)NN1CCOCC1 | 211 to 212 °C |
| CC1(N)CN(c2c(F)cc3c(=O)c(C(=O)O)cn(C4CC4)c3c2F)C1 | 298 to 300 °C |
| CC(C(=O)O)c1ccc2c(c1)Cc1ccccc1-2 (stereo unspecified) | 180 to 182 °C |
| Cc1c(Cl)ccc2c3c([nH]c12)[C@@]1(CC(=O)O)CC[C@H]1CC3 (relative stereo) | 189 to 190 °C |
| CCCC1=C(C#N)C(c2cccc(C)c2[N+](=O)[O-])c2c[nH]nc2N1 (stereo unspecified) | 250 °C |
| CCOCc1nc2c(N)nc3cc(-c4ccccc4)cnc3c2n1CCCON=C(C)C | 134 to 136 °C |
| COc1cc(COc2nn(-c3ccccc3)cc2Cn2cncn2)ccc1OCc1nc(-c2ccco2)oc1C | 149 to 150 °C |
| Cc1nc(-c2ccc(F)cc2)sc1C(=O)NCc1ccc(OC(C)(C)C(=O)O)cc1 | 159 °C |
| CC(C)CC(=O)N[C@H]1CC[C@H](CCN2CCC(c3cccc4c3CCO4)CC2)CC1 | 197 °C |
| CNc1ccc(N2CCC(C)CC2)c(C(=O)c2ccc(Cl)cc2)c1 | 177 °C |
| COC(=O)c1cscc1NC(=O)COc1ccc(-c2ccc(F)cc2)cc1 | 127 to 130 °C |
| CC(C)(C)n1nnc(Cc2ccc(CCC(=O)O)cc2)n1 | 139 to 141 °C |
| O=C(O)c1cccc(CC2COc3ccc(OCc4ccc5ccccc5n4)cc3C2O)c1 (stereo unspecified) | 193 to 195 °C |
| CCOC(=O)c1cc(=O)cc(-c2ccc(O)cc2)o1 | 213 to 215 °C |

| SMILES | melting point |
| --- | --- |
| NCCc1c[nH]c2ccc(C(N)=O)cc12 | 173 to 176 °C |
| CCCOc1ccccc1-c1nc2nc(NC)nnc2c(=O)[nH]1 | 261 to 263 °C |
| Cc1cc(C)cc(-c2c(-c3ccncc3)sc3nc(=O)cc(N)n23)c1 | 275 to 278 °C |
| CCOC(=O)c1cnn(-c2ccc(CBr)cc2)n1 | 148 to 149 °C |
| CCOC(=O)C1=C[C@@H](OC(CC)CC)[C@H](NC(C)=O)[C@@H](NC(=O)OC(C)(C)C)C1 | 144 to 145 °C |
| COC(=O)c1ccc([N+](=O)[O-])s1 | 74 °C |
| NC(=O)N1CC(Oc2ccc(C(F)(F)F)cc2Cl)C1 | 156 to 159 °C |
| CNCC1COC2(CCN(c3nc4c(cc3F)C=C(C(=O)O)CN4c3ccc(F)cc3F)CC2)O1 (stereo unspecified) | 188 to 193 °C |
| CCCCC(OC)c1nc2c(N)nc3ccccc3c2n1CC(C)C (stereo unspecified) | 125 to 128 °C |
| CCCc1nc(NCCOC(N)=O)nc(N2CCOCC2)n1 | 139 to 140 °C |
| CN(Cc1ccccc1)C(=O)/C=C/c1cc(Cl)cnc1N | 106 to 109 °C |
| Cc1cccc2c(C(=O)O)cc(-c3ccccn3)nc12 | 319 to 320 °C |
| COc1cc2c(cc1/C=C/CCO)oc1cc(-c3ccccc3Cl)c3c(c12)C(=O)NC3=O | 247 to 250 °C |
| O=C1NCCc2c(OCCCCl)cccc21 | 132 to 133 °C |
| CC(CCO)C(c1cc(F)ccc1F)S(=O)(=O)c1ccc(Cl)cc1 (stereo unspecified) | 65 to 67 °C |
| OCc1ccc(-c2ccc3nc(-c4ccccc4)cn3c2)cc1 | 238 to 240 °C |
| Cn1c(=O)c(-c2c(Cl)cccc2Cl)cc2cnc(Nc3ccc(Cl)cc3)nc21 | 255 to 256 °C |
| CC1(C)Oc2ccc([N+](=O)[O-])cc2C(C(N)=O)=C1O | 189 to 191 °C |
| CCCc1nc2c(N)nc3cc(C)ccc3c2s1 | 186 to 187 °C |
| CCOC(=O)COc1ccc(NC(=O)c2cnc(NC(=N)N)s2)cc1 | 218 °C |
| CC(=O)Oc1ccc(Cn2ncc(-c3ccc(S(C)(=O)=O)cc3)c(-c3ccc(F)cc3)c2=O)cc1 | 172 to 174 °C |
| O=CNNc1ccccc1NC(=S)Nc1ccccc1 | 224 to 226 °C |
| CSc1nc(O)cc(OC(F)F)n1 | 236 to 237 °C |
| CC(=O)SCCC(=O)N(C)C | 118 to 121 °C |
| CCOC(=O)c1sc2nc(C(C)C)ccc2c1N | 161 to 162 °C |
